From patent publication US20260138976A1 (Hoffmann-La Roche Inc., priority 2022, published 2026) come the findings set out here.

For one test, the system named is primary human T-cells. Nature of the test: Proliferation assay (5 days, CellTiter-Glo, CD3-stimulated T-cells). The class given is cell-based. Particulars: for Emax proliferation (% activation): CD3 condition, normalised to DMSO (neutral) and 20 μM reference compound A1 = 100%; for EC50: Homo sapiens, T-cell, 120 h, CD3-stimulated primary human T-cells, 5 days, CellTiter-Glo, fitted sigmoidal curve, read-out: Tcell Proliferation CD3 EC50. An outline of the steps:
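Expanded primary human T-cells, 100 k cells/well, were stimulated with plate-coated CD3 antibody (donor-titrated) and given compound in a 5 or 6 pt dose response from 20 μM or 10 μM final top, 0.2% DMSO final. ATP was read by CellTiter-Glo after 5 days. EC50 and Emax were reported as % of 20 μM reference compound A1.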
A general note: Cellular ATP, detected with luciferase, serves as a proxy for viable cell number.

Another test deals with MV-3 cells. Nature of the test: T-cell - TCB - MV3 killing assay. The class given is cell-based, human. As to conditions: for Emax: Homo sapiens, MV-3, 120 h, % TCL normalized: MCSP-TCB only = neutral control, 20 μM reference compound A1 = 100%, read-out: MSCP TCB killing MV-3 cells 5 d Emax (%); for EC50: primary human T-cells + MV-3 RFP cells, MCSP-TCB 1.5 pM-5 pM, 120 hours imaging, read-out: MSCP TCB killing MV-3 cells 5 d EC50. The protocol: All culturing steps are executed at 5% CO2, 37° C. and 95% humidity. MV-3 RFP cells are cultured in MV-3 medium (DMEM+10% FBS, 1× PenStrep and 0.5 μg/mL Puromycin) for at least 3 weeks. Cultured MV-3 cells at 80% confluency are washed once with PBS−− and trypsinized until detached. […] Cells are seeded with 100 μL/well into a 96-well plate (TTP, #92696), and placed for 40 minutes without moving at room temperature in order to achieve evenly distributed attachment of cells. Plates are then incubated until further use.
On the next day, expanded primary human T-cells are thawed and resuspended in T-cell medium to 4*10^6 cells/mL. For 3 hours, they are cultured in a 6-well plate with 6 mL per well at maximum. After culturing the T-cells, they are filtered through a cell strainer (Miltenyi Biotech, #130-041-407), counted again, and cell concentration is adjusted to 2*10^6 cells/mL.
MCSP-TCB or PBS are pre-diluted in T-cell medium (concentration depending on T-cell donor), 4 times more concentrated than the end-concentration. 60 μL/well of pre-dilutions are then distributed into a round bottom plate (Costar, #3799) according to plate layout. Compounds are added in a 9 pt dose response with the Tecan D300e Digital Dispenser, as well 4 times more concentrated than the end-concentration. DMSO concentration of all wells is adjusted to 0.8%, resulting in 0.2% as final concentration.
60 μL per well of T-cell suspension are added to the prepared round bottom plate and resuspended with a manual multichannel. 100 μL/well of the resuspended T-cell suspension including treatments are then transferred cautiously to the over-night cultured MV-3 cells according to plate layout. 100 μL T-cell medium only is added to the outer MV-3 wells only. Final compound DR is starting at 20 μM with a dilution factor of 3.333. Final TCB concentration is between 1.5 pM to 5 pM and was determined for each T-cell donor individually by running TCB titrations. For each donor, a TCB concentration was chosen which corresponds to 10-20% MV3 baseline cell killing in the absence of compound treatment. Positive control is the reference compound A1 which is added in a DR, as well as additional wells with only 20 μM. 20 μM of reference compound A1 represent the positive stimulator control, TCB only (DMSO wells) the neutral control.
After transfer of T-cells with treatment pre-dilutions, MV-3 cells are imaged by time-lapse microscopy using IncucyteZOOM™ (Essen BioScience, MI, USA). Imaging is performed every 3 hours for a total of 120 hours (10× objective, phase and red image channels, acquisition time 400 ms, Green/Red 4614 optical module). RFP object count per well is analysed in the IncucyteZOOM™ Software (Version 2019B Rev2) with a mask that was previously created and optimized for MV-3 cells. Raw data is exported as object count/well and values are normalized as % TCL compared to wells with MV-3 only, representing 100% growth and therefore 0% TCL.
Calculated % TCL values are analysed in Genedata Screener using Roche Normalization PCT_POS_CTRL with MCSP-TCB only set as Neutral Control and 20 μM of the reference compound A1 set as Stimulator Control/100%.
Induced TCL by compounds without TCB treatment or toxicity (observed in the PBS condition) were be flagged.

As for `N[C@H]1CS(=O)(=O)c2ccc(-c3nnc(N4CCOC(F)(F)C4)o3)cc2N(Cc2ccc(-c3noc(C(F)(F)F)n3)cc2)C1=O` [Example 78, (3R)-3-amino-7-[5-(2,2-difluoromorpholin-4-yl)-1,3,4-oxadiazol-2-yl]-1,1-dioxo-5-[[4-[5-(trifluoromethyl)-1,2,4-oxadiazol-3-yl]phenyl]methyl]-2,3-dihydro-1λ^6,5-benzothiazepin-4-one], in the test with primary human T-cells, the “Emax proliferation (% activation)” value stood at 150 % activation and the EC50 is 1090 nM. In the test on MV-3 cells, the Emax was found to be 112% and the EC50 worked out at 93 nM.

For `CC(C)(c1nnc(-c2ccc3c(c2)N(Cc2ccc(-c4noc(C(F)(F)F)n4)cc2)C(=O)[C@@H](N)CS3(=O)=O)o1)C(F)(F)F` [Example 166], in the test with primary human T-cells, the “Emax proliferation (% activation)” value came to 164 % activation and the EC50 came to 75.9 nM. Besides, in the test with MV-3 cells, the Emax was 102% and the EC50 was 10 nM.

On to `C[C@@](N)(c1nnc(-c2ccc3c(c2)N(Cc2ccc(-n4ccc(C(F)(F)F)n4)cc2)C(=O)[C@@H](N)CS3(=O)=O)o1)C(F)(F)F` [Example 157, (3R)-3-amino-7-[5-[(1R)-1-amino-2,2,2-trifluoro-1-methyl-ethyl]-1,3,4-oxadiazol-2-yl]-1,1-dioxo-5-[[4-[3-(trifluoromethyl)pyrazol-1-yl]phenyl]methyl]-2,3-dihydro-1λ^6,5-benzothiazepin-4-one], for which, in the test on primary human T-cells, the “Emax proliferation (% activation)” value was 130 % activation and the EC50 came out at 600 nM. In the test on MV-3 cells, the Emax worked out at 100% and the EC50 came to 119 nM.

Turning to `CC(C)(C#N)c1nnc(-c2ccc3c(c2)N(Cc2ccc(-c4ccc(C(F)(F)F)cn4)cc2)C(=O)[C@@H](N)CS3(=O)=O)o1` [Example 47], in the test on primary human T-cells, the “Emax proliferation (% activation)” value is recorded as 159 % activation and the EC50 is 459 nM. Also, in the test on MV-3 cells, the Emax was 103% and the EC50 is 280 nM.

As for `CC(C)(C#N)c1nnc(-c2ccc3c(c2)N(Cc2ccc(-n4ccc(C(F)(F)F)n4)cc2)C(=O)[C@@H](N)CS3(=O)=O)o1` [Example 121, 2-[5-[(3R)-3-amino-1,1,4-trioxo-5-[[4-[3-(trifluoromethyl)pyrazol-1-yl]phenyl]methyl]-2,3-dihydro-1λ^6,5-benzothiazepin-7-yl]-1,3,4-oxadiazol-2-yl]-2-methyl-propanenitrile], in the test with primary human T-cells, the “Emax proliferation (% activation)” value is reported as 160 % activation and the EC50 is 1090 nM. For the same compound, in the test on MV-3 cells, the Emax came to 98% and the EC50 was found to be 109 nM.

Take `COc1ccc(-c2ccc(CN3C(=O)[C@@H](N)CS(=O)(=O)c4ccc(-c5nnc(N(C)CC(F)(F)F)o5)cc43)cc2)cc1` [Example 81, (3R)-3-amino-5-[[4-(4-methoxyphenyl)phenyl]methyl]-7-[5-[methyl(2,2,2-trifluoroethyl)amino]-1,3,4-oxadiazol-2-yl]-1,1-dioxo-2,3-dihydro-1λ^6,5-benzothiazepin-4-one]: in the test with primary human T-cells, the “Emax proliferation (% activation)” value is 138 % activation and the EC50 came out at 728 nM. In the test with MV-3 cells, the Emax is 98% and the EC50 was found to be 343 nM.

For the compound `C[C@@](N)(c1nnc(-c2ccc3c(c2)N(Cc2ccc(-c4noc(C(F)(F)F)n4)cc2)C(=O)[C@@H](N)CS3(=O)=O)o1)C(F)(F)F` [Example 52, (3R)-3-amino-7-[5-[(1R)-1-amino-2,2,2-trifluoro-1-methyl-ethyl]-1,3,4-oxadiazol-2-yl]-1,1-dioxo-5-[[4-[5-(trifluoromethyl)-1,2,4-oxadiazol-3-yl]phenyl]methyl]-2,3-dihydro-1λ^6,5-benzothiazepin-4-one], in the test on primary human T-cells, the “Emax proliferation (% activation)” value is recorded as 126 % activation and the EC50 turned out to be 196 nM. In the test on MV-3 cells, the Emax turned out to be 95% and the EC50 is 52 nM.

With `COC(=O)N1CC2CC(c3nnc(-c4ccc5c(c4)N(Cc4ccc(-c6ccc(C(F)(F)F)cn6)cc4)C(=O)[C@@H](N)CS5(=O)=O)o3)(C2)C1` [Example 159, methyl 1-[5-[(3R)-3-amino-1,1,4-trioxo-5-[[4-[5-(trifluoromethyl)-2-pyridyl]phenyl]methyl]-2,3-dihydro-1λ^6,5-benzothiazepin-7-yl]-1,3,4-oxadiazol-2-yl]-3-azabicyclo[3.1.1]heptane-3-carboxylate], in the test on primary human T-cells, the “Emax proliferation (% activation)” value came to 146 % activation and the EC50 was found to be 152 nM. Moreover, in the test with MV-3 cells, the Emax is 102% and the EC50 came out at 166 nM.

Regarding `C[C@](N)(c1nnc(-c2ccc3c(c2)N(Cc2ccc(-c4noc(C(F)(F)F)n4)cc2)C(=O)[C@@H](N)CS3(=O)=O)o1)C(F)(F)F` [Example 53, (3R)-3-amino-7-[5-[(1S)-1-amino-2,2,2-trifluoro-1-methyl-ethyl]-1,3,4-oxadiazol-2-yl]-1,1-dioxo-5-[[4-[5-(trifluoromethyl)-1,2,4-oxadiazol-3-yl]phenyl]methyl]-2,3-dihydro-1λ^6,5-benzothiazepin-4-one], in the test with primary human T-cells, the “Emax proliferation (% activation)” value is reported as 120 % activation and the EC50 stood at 2220 nM. Further, in the test on MV-3 cells, the Emax is 98% and the EC50 stood at 137 nM.

With `CC(C)(C#N)c1nnc(-c2ccc3c(c2)N(Cc2ccc(-c4ccc(OC(F)(F)F)cn4)cc2)C(=O)[C@@H](N)CS3(=O)=O)o1` [Example 124], in the test on primary human T-cells, the “Emax proliferation (% activation)” value was determined as 153 % activation and the EC50 was 114 nM. Also, in the test with MV-3 cells, the Emax was 100% and the EC50 turned out to be 23 nM.

With `CC(C)(C)c1nnc(-c2ccc3c(c2)N(Cc2ccc(-n4cnc(C(F)(F)F)n4)cc2)C(=O)[C@@H](N)CS3(=O)=O)o1` [Example 91, (3R)-3-amino-7-(5-tert-butyl-1,3,4-oxadiazol-2-yl)-1,1-dioxo-5-[[4-[3-(trifluoromethyl)-1,2,4-triazol-1-yl]phenyl]methyl]-2,3-dihydro-126,5-benzothiazepin-4-one], in the test with primary human T-cells, the “Emax proliferation (% activation)” value came out at 127 % activation and the EC50 was 404 nM. In the test on MV-3 cells, the Emax was determined as 96% and the EC50 was determined as 237 nM.

For `N[C@H]1CS(=O)(=O)c2ccc(-c3nnc(N4CCOC(C(F)(F)F)C4)o3)cc2N(Cc2ccc(-c3ccc(C(F)(F)F)cn3)cc2)C1=O` (stereo partly drawn) [Example 75, (3R)-3-amino-1,1-dioxo-7-[5-[2-(trifluoromethyl)morpholin-4-yl]-1,3,4-oxadiazol-2-yl]-5-[[4-[5-(trifluoromethyl)-2-pyridyl]phenyl]methyl]-2,3-dihydro-1λ^6,5-benzothiazepin-4-one], in the test with primary human T-cells, the “Emax proliferation (% activation)” value was determined as 115 % activation and the EC50 turned out to be 1200 nM.

In the case of `CCC(O)(c1nnc(-c2ccc3c(c2)N(Cc2ccc(-c4noc(C5CC5)n4)cc2)C(=O)[C@@H](N)CS3(=O)=O)o1)C(F)(F)F` (some centres unmarked) [Example 169], in the test with primary human T-cells, the “Emax proliferation (% activation)” value came to 106 % activation and the EC50 was determined as 833 nM.

Regarding `CC(C)(C)c1nnc(-c2ccc3c(c2)N(Cc2ccc(-n4cnc(C(F)(F)F)c4)cc2)C(=O)[C@@H](N)CS3(=O)=O)o1` [Example 28, (3R)-3-amino-7-(5-tert-butyl-1,3,4-oxadiazol-2-yl)-1,1-dioxo-5-[[4-[4-(trifluoromethyl)imidazol-1-yl]phenyl]methyl]-2,3-dihydro-1λ^6,5-benzothiazepin-4-one], in the test on primary human T-cells, the “Emax proliferation (% activation)” value is 108 % activation and the EC50 turned out to be 3510 nM.

By Emax is commonly meant the greatest response seen or fitted, relative to the assay's reference.
